Test: Shell wheel test (corrosion inhibition)
Conditions: 50 ppm of a 24% solution of the inhibitor; salt water/petroleum mixture 9:1, 5% NaCl, pH 3.5; 40 rpm, 70° C., 24 hours; from decrease in coupon mass, based on a blank value
Procedure: The compounds according to the invention were tested as corrosion inhibitors in the Shell wheel test. Coupons of C steel (DIN 1.1203 with 15 cm^2 surface area) were immersed in a salt water/petroleum mixture (9:1,5% strength NaCl solution adjusted to pH 3.5 with acetic acid) and exposed to this medium at a speed of 40 rpm at 70° C. for 24 hours. The inhibitor dose was 50 ppm of a 24% solution of the inhibitor. The protection values were calculated from the decrease in the mass of the coupons, based on a blank value.

## CCCCCCCC/C=C\CCCCCCCC(=O)NC(CCSC)C(=O)[O-].[K+] (racemic) [example 2, N-Oleoyl-DL-methionine potassium Salt]
  ø protection %: 69%

Reference: patent publication US20090057617A1, “Corrosion inhibitors containing anionic surfactants” (priority 2007, published 2009)
